Test results published in patent publication US6335325B1, “Acylated 4-aminopyridine derivatives as pesticides and fungicides” (Bayer Aktiengesellschaft, priority 1997, dated 2002).

Columns and labels:
[1] = logP determination by HPLC (EEC Directive 79/831 Annex V. A8); format: physicochemical; conditions: pH 2; pH2; HPLC gradient method, acetonitrile/0.1% strength aqueous phosphoric acid
Protocol: [logP=The logP values were determined in accordance with EEC Directive 79/831 Annex V. A8 by HPLC (gradient method, acetonitrile/0.1% strength aqueous phosphoric acid]

[2] = test system: caterpillars of the owlet moth (Spodoptera exigua); assay: Spodoptera exigua Test; format: in vivo; conditions: active compound concentration of 0.0008%; after 6 days; dipped cabbage leaves (Brassica oleracea)
Protocol: Solvent: 7 parts by weight of dimethylformamide
Emulsifier: 1 part by weight of alkylaryl polyglycol ether
After the desired period of time, the kill in % is determined. 100% means that all caterpillars have been killed; 0% means that none of the caterpillars have been killed.

Work on CCc1nccc(N(C(=O)Cc2ccc(Oc3ccc(C(N)=S)cc3)cc2)C(=O)OC(C)C)c1Cl [Preparation Example 1, N-(3-chloro-2-ethyl-pyridin-4-yl)-N-isopropoxycarbonyl-4-(4-aminothiocarbonylphenoxy)-phenylacetamide] yielded a chromatographic logP [1] of 3.71 and a kill in % [2] of 100%.
